Measurements as given in article PMC6043372 (Journal of medicinal chemistry, 2018).
Like-named read-outs stand apart in the source and are kept apart here.

Tested on: Mtb H37Rv
Type: cell-based, Mycobacterium tuberculosis H37Rv

For `CCCCCCCCn1cc(CN2CCC3(CC2)OCCCO3)c2ccc(OC)cc21` [Compound 12], the “spontaneous resistance mutation frequency” value was 10^−8 /CFU.

In the case of `CCCCCCCCn1cc(CN2CCCCCC2)c2c(F)cccc21` [Compound 71, 3-(azepan-1-ylmethyl)-4-fluoro-1-octyl-1H indole], the “spontaneous resistance mutation frequency” value (Mtb H37Rv, 12 at 4× and 8× MIC90) is reported as < 10^−9 /CFU.
